Experimental data reported in patent US12559471B2, “1,5-dihydro-2,4-benzodiazepine-3-one derivative and application thereof” (JIANGSU NHWA PHARMACEUTICAL CO., LTD, priority 2020, dated 2026).
Where “and” joins values, the source holds several entries; their conditions need not be identical. Identical values can stand only once.

How the values were obtained:
5-HT2A receptor = 5-HT2A receptor (Homo sapiens (Human), UniProt P28223); assay: Competitive 5-HT2A receptor binding assay (3H-Ketanserin, CHO-5-HT2A membrane); conditions: for Ki: CHO-5-HT2A membrane, 3H-Ketanserin, read-out: 5-HT2A (Ki value); for 2C/2A: ratio of 5-HT2C Ki to 5-HT2A Ki
Experimental: 1) Preparation of CHO-5-HT2A Receptor Membrane
The precipitate was collected, and the supernatant was discarded. The solution B was added into the precipitate. […] The supernatant was carefully discarded, and the solution B was added into the precipitate again. […] The precipitate obtained was stored at −80° C.
1) Competitive 5-HT2A Receptor Binding Assay
Step 2: 100 μL of the membrane preparation was added into each reaction tube.
After the filtration, the filter membrane was dried at 60° C. and added into a scintillation disc attached with a bottom membrane, which was then added with 40 μL of scintillation liquid, sealed with a top membrane, and left to stand.

hERG potassium channel = hERG potassium channel (Homo sapiens (Human), UniProt Q12809); assay: In vitro hERG assay, whole-cell patch clamp in HEK-293 cells; type: cell-based; conditions: HEK-293 cells stably expressing hERG, room temperature
Experimental: b. […] The working solutions of the test compounds were ultrasonically treated for 20 min.
The cell suspension was gently pipetted to separate the aggregated cells.
Under an inverted microscope, recording electrodes were controlled by a glass electrode micromanipulator (micromanipulation) to contact with the cell. […] After forming the GΩ seal, a rapid capacitance compensation was given.
Negative control and test compounds flowed through the recording chamber in an ascending order of concentration by gravity perfusion to quickly act on the cells. During the recording, the extracellular fluid was continuously circulated by a vacuum pump. […] Each concentration was allowed to act for 5 min or until the current was stabilized. All experiments were performed at room temperature.
[formula] Basic statistics were calculated for each concentration, including mean, standard deviation (SD), standard error (SE), and replicates (n). The dose-dependent curve was fitted with the following equation and the half maximal inhibitory concentration (IC50) of the test compounds was calculated:
Curve fitting and calculation of IC50 were performed by GraphPad Prism 5.0 software. 5. Experimental Results

[1] = system: MPTP+MK-801-induced Parkinson's disease mouse model; assay: MPTP+MK-801-induced Parkinson's disease mouse model (anti-PDP efficacy model); type: in vivo; conditions: ip, mice, intraperitoneal, read-out: PDP efficacy (high activity) ED50
Experimental: 1.1 Effect on MPTP+MK-801-induced Parkinson's disease mouse model (anti-PDP efficacy model)
Animals were injected with different doses of MPTP(1-methyl-4-phenyl-1,2,3,6-tetrahydropyridine) intraperitoneally every morning for 5 consecutive days. […] Then, after an interval of 0.25 h, the mice were placed into an autonomous activity test box (a black polyethylene box with the specification of 29 cm×29 cm×30 cm) for video recording for 20 min. Video analysis was performed after the video recording to evaluate the activity of the mice.

[2] = system: MPTP+APO-induced climbing behavior in male mice; assay: MPTP+APO-induced climbing behavior in male mice (DA motor deterioration model); type: in vivo
Experimental: (§1) 1.2 Effect on MPTP+APO-induced climbing behavior in male mice (DA motor deterioration model) Animals were injected with different doses of MPTP intraperitoneally every morning for 5 consecutive days. […] After the subcutaneous injection, animals were immediately placed into a climbing cage (self-made, a cylindrical cage with the diameter of 13 cm and the height of 15 cm, made of a stainless steel wire mesh with the diameter of about 0.1 cm, the bottom of which is a semitransparent polyethylene plate, and the cage cover of which is a stainless steel cage cover), and the behaviors of animals at minutes 10-11, 20-21 and 30-31 after the APO injection was observed and scored.
(§2) Scoring criteria: four feet on the floor scored 0; two forepaws on the cage scored 1; and four feet on the cage scored 2.

[3] = Investigation of sedation side effects (autonomic activity, movement distance); type: in vivo, mice; conditions: mouse, in vivo, ip; C57BL/6j mice, intraperitoneal, 45 min after administration
Experimental: (§3) 1.3 Investigation of Sedation Side Effects (Anti-Sedation Model)
(§4) According to different doses of each group, solutions at different concentrations were separately formulated for intraperitoneal injection, with the final administration volume of 10 mL/kg.
(§5) The movement at 0-20 min was recorded on video, and the movement distance in 20 min was analyzed by Top Scan 3.00 software. The inhibition rate of each group relative to the blank group after the administration were calculated, and the sedation effects of the compounds were comprehensively evaluated in combination with a statistical conclusion.

C57BL/6j mice = assay: as above; type: in vivo; conditions: sedation ED50 / PDP efficacy ED50
Experimental: as §3, §4, §5

[4] = system: DOI-induced head shaking behavior of mice; assay: DOI-induced head shaking (head thrust) test in mice; type: in vivo; conditions: Mus musculus, intragastric, DOI 1 mg/kg i.p., 0-20 min, read-out: ED50 for inhibiting the DOI-induced head shaking behavior
Experimental: 1. Head Thrust Test in Mice
Mice were stratified according to body weight and then randomly divided into a model control group, a blank control group and drug administration groups. 1 h after the intragastric administration of a vehicle or a drug, the animals were placed in a beaker (with the diameter of 13 cm and the height of 19 cm) paved with fresh padding, and were injected with a modeling drug DOI ((±)-1-(2,5-dimethoxy-4-iodophenyl)-2-aminopropane hydrochloride or (±)-2,5-dimethoxy-4-iodoamphetamine hydrochloride) intraperitoneally at a dose of 1 mg/kg. The head shaking times of the mice during the 0-20 min after the intraperitoneal injection of DOI were recorded. The head shaking behavior is defined as a rapid rotational twitching or wet dog-like shaking of the mouse head, which is distinguished from normal grooming or exploring behavior.

5-HT2C receptor = 5-HT2C receptor (Rattus norvegicus (Rat), UniProt P08909); conditions: read-out: 5-HT2C (Ki value); rat cortex membrane, 3H-Mesulergine
Experimental: 2) Preparation of 5-HT2C Membrane
The rat cortex was taken out of a refrigerator at −80° C. and thawed spontaneously. The solution A was added, and the mixture was homogenized for 3-4 s at 4th gear for a total of 4 times and centrifuged at 50000 g for 25 min at 4° C. The supernatant was discarded, and the solution A was added into the precipitate. The mixture was mixed well using a vortex mixer and centrifuged at 50000 g for 25 min at 4° C. (repeated twice). The supernatant was discarded after the centrifugation, and the precipitate was stored at −80° C. for later use.
2) Competitive 5-HT2C Receptor Binding Assay
Step 1: the prepared membrane was suspended in the homogenate B to obtain a 210 mg/mL membrane suspension for later use.
Step 2: 100 μL of the membrane suspension was added into each reaction tube.
Step 3: 100 μL of the solution B was added into a total binding tube (TB), 100 μL of Ketanserin (final concentration: 1.0×10^−5 M) was added into a non-specific binding tube (NB), and 100 μL of test compound was added into each compound binding tube (CB).
Step 4: 10 μL of radioligand ^3H-Mesulergine was added into each reaction tube to reach a final concentration of 3 nM.
Step 5: each reaction tube was incubated at 37° C. for 25 min. After the reaction was completed, the binding ligands were rapidly filtered under reduced pressure, wherein the Whatman test paper GF/C was washed with 0.5% PEI solution 1 h in advance. The filter membrane was fully washed with cold Tris buffer solution, taken out and put into a 4 mL scintillation disc, which was then added with 1 mL toluene scintillation solution and shaken for mixing well.
Step 6: the scintillation disc was put into a liquid scintillation counter for counting.

[5] = system: MK-801-induced high activity behavior of mice; assay: Dizocilpine (MK-801)-induced high activity test in mice; type: in vivo; conditions: Mus musculus, 1 h, intragastric, MK-801 0.3 mg/kg i.p., 60 min, read-out: ED50 for inhibiting the MK-801-induced high activity behavior
Experimental: 2. Dizocilpine (MK-801)-Induced High Activity Test in Mice 2.1 Test Method
Mice were stratified according to body weight and then randomly divided into a model control group, a blank control group and drug administration groups. After the administration of a test substance (or a control substance), the mice were placed into an autonomous activity test box (a black polyethylene box with the specification of 29 cm×29 cm×30 cm) for adaptation, and injected with MK-801 at 0.3 mg/kg intraperitoneally 1 h after the intragastric administration. The mice were then placed into the autonomous activity test box for video recording for 60 min. Video analysis was performed after the video recording to evaluate the activity of the mice.

[6] = system: DOI-induced PPI impairment in rats; assay: DOI-induced PPI impairment test in rats (intervention test); type: in vivo; conditions: DOI 0.5 mg/kg; for reversal of DOI-induced PPI impairment: P<0.05
Experimental: 3. DOI ((f)-1-(2,5-dimethoxy-4-iodophenyl)-2-aminopropane hydrochloride or (f)-2,5-dimethoxy-4-iodoamphetamine hydrochloride) induced PPI impairment effect test in rats
30 min after the intragastric administration of a drug (or a vehicle) and 30 min after the subcutaneous injection of DOI at 0.5 mg/kg at the neck, namely 60 min after the intragastric administration, the rats were placed into a startle reflex test box for testing.
(§6) The test was performed according to literature and preliminary experiments, and the specific process was as follows: first an adaptation period of 5 min was given (62 dB background sound), and 5 separate startle reflex stimuli were given after the adaptation period (blockl, results not included in the analysis to reduce the initial response of the animals to a plateau level), followed by 4 different types of tests (block2) presented in a pseudo-random manner, namely: 1) startle reflex stimulus alone (pulse-alone, 120 dB, lasting 20 ms); 2) prepulse stimulus alone 13 dB above the background sound (prepulse-alone, 75 dB, lasting 20 ms); 3) prepulse stimulus in combination with startle reflex stimulus, each lasting 20 ms, with an interval of 100 ms; and 4) no stimulus in which only the background sound was given (no stimulus). Each trial was performed 5 times, with an average interval of 20 s (10-30 s) between trials.
(§7) The response amplitude of the startle reflex stimulus alone or the prepulse stimulus in combination with startle reflex stimulus was expressed as the AVG (instrument-specific unit) value, which indirectly reflects the size of the flinching response of the rat body. Evaluation index: PPI %=(1−response amplitude of prepulse stimulus in combination with startle reflex stimulus/response amplitude of startle reflex stimulus alone)×100. The higher the value is, the greater the degree of the inhibition is.

PPI in normal rats = PPI in normal rats (dosing test, normal saline instead of DOI); type: in vivo; conditions: for PPI %, MEAN / PPI %, individual animal: normal saline
Experimental: as §6
as §7, with “is. Dosing Test:” for “is.”
The DOI at 0.5 mg/kg administered to animals in the above groups was changed to normal saline (NS), and other operations including administration and testing were the same as those in the intervention test.

[7] = MPTP+APO-induced climbing behavior in male mice (DA motor deterioration model); type: in vivo; conditions: mouse, in vivo, ip; male mice, intraperitoneal; read-out: DA side effects (climbing motor deterioration) ED50
Experimental: as §1, §2

5-HT2B receptor = 5-HT2B receptor (Homo sapiens (Human), UniProt P41595); conditions: background statement, no significant affinity; cited from earlier work
adrenergic receptor = conditions: background statement, no significant affinity; cited from earlier work
muscarinic receptor = conditions: background statement, no significant affinity; cited from earlier work
calcium channel receptor = conditions: background statement, no significant affinity; cited from earlier work

Chain of 5-HT2A receptor (P28223 whole entry): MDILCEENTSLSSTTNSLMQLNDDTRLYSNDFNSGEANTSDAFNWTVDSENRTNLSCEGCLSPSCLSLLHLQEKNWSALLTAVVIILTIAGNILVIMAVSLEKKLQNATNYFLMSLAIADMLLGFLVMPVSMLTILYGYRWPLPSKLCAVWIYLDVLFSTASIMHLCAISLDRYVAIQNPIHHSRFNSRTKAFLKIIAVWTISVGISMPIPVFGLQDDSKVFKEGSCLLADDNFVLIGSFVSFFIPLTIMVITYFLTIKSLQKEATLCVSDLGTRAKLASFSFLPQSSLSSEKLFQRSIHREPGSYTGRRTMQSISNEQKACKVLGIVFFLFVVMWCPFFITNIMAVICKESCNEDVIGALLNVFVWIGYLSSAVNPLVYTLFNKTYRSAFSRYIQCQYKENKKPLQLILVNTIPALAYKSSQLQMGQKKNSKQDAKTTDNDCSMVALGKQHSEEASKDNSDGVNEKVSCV
Chain of 5-HT2C receptor (P08909 33-460): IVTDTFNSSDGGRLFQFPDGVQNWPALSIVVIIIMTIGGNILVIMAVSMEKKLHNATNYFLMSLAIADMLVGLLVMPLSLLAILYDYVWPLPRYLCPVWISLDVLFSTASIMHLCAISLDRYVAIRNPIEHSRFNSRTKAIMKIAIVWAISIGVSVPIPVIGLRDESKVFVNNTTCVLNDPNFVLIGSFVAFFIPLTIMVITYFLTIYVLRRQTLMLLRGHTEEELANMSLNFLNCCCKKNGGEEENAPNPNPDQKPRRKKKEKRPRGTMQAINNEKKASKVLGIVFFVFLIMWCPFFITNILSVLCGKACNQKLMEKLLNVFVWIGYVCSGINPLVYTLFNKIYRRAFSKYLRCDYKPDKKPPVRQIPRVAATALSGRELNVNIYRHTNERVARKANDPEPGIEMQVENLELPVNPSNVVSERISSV
Chain of hERG potassium channel (Q12809 whole entry): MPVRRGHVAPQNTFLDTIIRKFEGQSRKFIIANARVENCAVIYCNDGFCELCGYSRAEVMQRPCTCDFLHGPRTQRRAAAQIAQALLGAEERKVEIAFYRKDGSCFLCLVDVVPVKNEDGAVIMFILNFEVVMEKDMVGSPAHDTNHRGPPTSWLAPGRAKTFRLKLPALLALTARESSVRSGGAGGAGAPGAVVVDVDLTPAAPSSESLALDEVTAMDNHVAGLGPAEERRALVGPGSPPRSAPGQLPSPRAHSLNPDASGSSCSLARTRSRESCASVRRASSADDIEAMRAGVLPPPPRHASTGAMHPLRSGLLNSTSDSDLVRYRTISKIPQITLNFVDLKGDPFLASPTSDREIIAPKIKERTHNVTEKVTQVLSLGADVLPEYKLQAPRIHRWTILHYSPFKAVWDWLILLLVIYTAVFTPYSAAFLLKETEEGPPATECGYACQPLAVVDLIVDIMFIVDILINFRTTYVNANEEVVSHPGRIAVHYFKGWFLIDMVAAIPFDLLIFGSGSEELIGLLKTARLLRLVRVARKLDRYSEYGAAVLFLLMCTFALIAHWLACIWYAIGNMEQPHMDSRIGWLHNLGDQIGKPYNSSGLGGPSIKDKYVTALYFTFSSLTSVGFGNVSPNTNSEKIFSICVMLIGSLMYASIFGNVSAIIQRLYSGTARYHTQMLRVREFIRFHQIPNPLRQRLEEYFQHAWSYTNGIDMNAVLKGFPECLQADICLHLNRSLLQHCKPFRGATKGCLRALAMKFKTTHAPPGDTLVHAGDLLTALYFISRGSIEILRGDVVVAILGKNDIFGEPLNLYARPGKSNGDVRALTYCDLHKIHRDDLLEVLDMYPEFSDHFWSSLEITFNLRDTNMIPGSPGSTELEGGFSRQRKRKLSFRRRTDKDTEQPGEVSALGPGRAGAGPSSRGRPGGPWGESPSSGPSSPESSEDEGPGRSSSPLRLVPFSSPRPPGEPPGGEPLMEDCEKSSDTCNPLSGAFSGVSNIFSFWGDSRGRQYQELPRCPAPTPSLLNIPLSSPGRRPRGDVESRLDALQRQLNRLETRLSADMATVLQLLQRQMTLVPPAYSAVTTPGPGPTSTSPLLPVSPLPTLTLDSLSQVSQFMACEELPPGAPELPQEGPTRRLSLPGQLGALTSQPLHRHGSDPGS
Chain of 5-HT2B receptor (P41595 whole entry): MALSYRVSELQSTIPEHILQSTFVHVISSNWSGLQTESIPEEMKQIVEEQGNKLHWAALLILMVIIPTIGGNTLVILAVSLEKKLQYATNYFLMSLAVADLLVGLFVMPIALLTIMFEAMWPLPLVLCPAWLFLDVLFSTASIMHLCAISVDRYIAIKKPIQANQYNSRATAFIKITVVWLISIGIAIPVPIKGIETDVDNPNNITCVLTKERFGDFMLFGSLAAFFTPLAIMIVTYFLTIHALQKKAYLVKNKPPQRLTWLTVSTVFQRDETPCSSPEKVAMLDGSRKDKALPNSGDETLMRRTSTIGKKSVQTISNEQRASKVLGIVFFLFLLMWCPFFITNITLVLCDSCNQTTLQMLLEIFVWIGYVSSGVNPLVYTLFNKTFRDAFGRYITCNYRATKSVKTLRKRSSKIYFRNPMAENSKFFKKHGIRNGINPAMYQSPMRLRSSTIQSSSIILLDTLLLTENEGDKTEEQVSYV

## CC(C)COc1ccc(CN2Cc3cc(F)ccc3CN(C3CCN(C)CC3)C2=O)cc1 [NH-K-A19001, 7-fluoro-2-(1-methylpiperidin-4-yl)-4-[[4-(2-methylpropoxy)phenyl]methyl]-1,5-dihydro-2,4-benzo diazepine-3-one]
5-HT2A receptor
  Ki: 0.028 nM
  2C/2A: 86.327
hERG potassium channel
  IC50: 260 nM
[1]
  ED50: 0.33 mg/kg
[2]; observation in words
  motor deterioration (DA mechanism of action): no motor deterioration is observed
[3]
  ED50 at 45 min: 3.74 mg/kg
C57BL/6j mice
  Ratio of sedation ED50 to PDP efficacy ED50: 11.33
[4]
  ED50: 0.06 mg/kg
5-HT2C receptor
  Ki: 2.4 nM

## CN1CCC(N2Cc3cc(F)ccc3CN(Cc3ccc(OC4CC4)cc3)C2=O)CC1 [NH-K-A19006, 8-fluoro-2-(1-methylpiperidin-4-yl)-4-[[4-(cyclopropoxy)phenyl]methyl]-1,5-dihydro-2,4-benzodiazepine-3-one]
5-HT2A receptor
  Ki: 0.277 nM
  2C/2A: 5.856
hERG potassium channel
  IC50: 1190 nM
[1]
  ED50: 0.31 mg/kg
[3]
  ED50 at 45 min: 11.9 mg/kg
[4]
  ED50: 0.012 mg/kg
[5]
  ED50: 0.265 mg/kg
[6]; 0.3 mg/kg
  reversal of DOI-induced PPI impairment: significantly reverse
[6]; 0.03 mg/kg intragastric
  PPI %, MEAN: 33.01%
  PPI %, individual animal: 49.78% and 58.97% and 53.17% and 2.79% and 32.00% and 8.44% and 20.87% and 38.06%
[6]; 0.1 mg/kg intragastric
  PPI %, MEAN: 43.48%
  PPI %, individual animal: 12.46% and 51.33% and 38.29% and 47.73% and 47.53% and 74.93% and 10.18% and 65.40%
[6]; 0.3 mg/kg intragastric
  PPI %, MEAN: 50.12%
  PPI %, individual animal: 60.53% and 60.18% and 56.91% and 67.62% and 85.73% and 7.56% and 39.78% and 22.65%
PPI in normal rats; 0.3 mg/kg
  effect on PPI in normal rats: no significant effects were seen
PPI in normal rats; 0.03 mg/kg intragastric
  PPI %, MEAN: 68.69%
  PPI %, individual animal: 81.41% and 91.96% and 55.90% and 54.35% and 60.94% and 74.39% and 87.22% and 43.35%
PPI in normal rats; 0.1 mg/kg intragastric
  PPI %, MEAN: 70.23%
  PPI %, individual animal: 60.40% (2×) and 81.41% and 77.50% and 71.96% and 69.71% and 50.53% and 89.95%
PPI in normal rats; 0.3 mg/kg intragastric
  PPI %, MEAN: 53.62%
  PPI %, individual animal: 47.76% and 42.79% and 68.71% and 70.20% and 55.52% and 65.07% and 16.28% and 62.68%
5-HT2C receptor
  Ki: 1.62 nM

## CC(C)COc1ccc(CNC(=O)N(Cc2ccc(F)cc2)C2CCN(C)CC2)cc1 [Pimavanserin, reference compound]
[1]
  ED50: 0.37 mg/kg
[7]
  ED50: > 30 mg/kg
[2]; male mice, intraperitoneal
  DA side effects (climbing motor deterioration) ED50: >30 mg/kg
[3]
  ED50 at 45 min: 6.79 mg/kg
[4]
  ED50: 0.39 mg/kg
[5]
  ED50: 3.29 mg/kg
[6]; 3 mg/kg
  reversal of DOI-induced PPI impairment: significantly reverse
[6]; 1 mg/kg intragastric
  PPI %, MEAN: 28.93%
  PPI %, individual animal: 30.19% and 7.34% and 12.78% and −9.80% and 36.56% and 57.19% and 55.33% and 41.86%
[6]; 3 mg/kg intragastric
  PPI %, MEAN: 42.65%
  PPI %, individual animal: 25.79% and 45.06% and 35.48% and 4.10% and 30.23% and 62.54% and 62.41% and 75.59%
[6]; 10 mg/kg intragastric
  PPI %, MEAN: 47.32%
  PPI %, individual animal: 69.36% and 54.29% and 71.90% and 24.73% and 32.57% and 37.52% and 33.19% and 55.00%
PPI in normal rats; 1 mg/kg intragastric
  PPI %, MEAN: 63.11%
  PPI %, individual animal: 14.80% and 45.96% and 67.95% and 61.11% and 92.15% and 83.93% and 70.62% and 68.32%
PPI in normal rats; 3 mg/kg intragastric
  PPI %, MEAN: 60.54%
  PPI %, individual animal: 76.95% and 37.54% and 42.51% and 64.49% and 42.29% and 71.78% and 84.89% and 63.88%
PPI in normal rats; 10 mg/kg intragastric
  PPI %, MEAN: 57.00%
  PPI %, individual animal: 83.19% and 80.13% and 44.91% and 82.49% and 52.16% and −32.12% and 72.74% and 72.49%
5-HT2B receptor
  Ki: > 300 nM
Adrenergic receptor
  Ki: > 300 nM
Muscarinic receptor
  Ki: > 300 nM
Calcium channel receptor
  Ki: > 300 nM
